Data as given in patent publication US20250382255A1, “ERYTHRITOL ESTER OF PHENYL BUTYRIC ACID” (AAYAM THERAPEUTICS LLC, priority 2022, published 2025).
Like-named read-outs stand apart in the source and are kept apart here.

Assay: Pharmacokinetics (PK) study, plasma exposure of PBA after oral dosing of PBA analogues
Assay type: in vivo, SD rats
Experimental: Pharmacokinetics (PK) study was carried out to evaluate the plasma exposure of two PBA analogues (ATX-2022-018 and ATX-2022-034), when dosed orally (PO) at 22.5 mg/kg in 50% Propylene glycol. Dosing was done in overnight fasted SD rats (n=6). After oral (PO) administration blood was collected by serial bleeding at 8 different time points in heparinized tubes. Blood samples were centrifuged at 10,000 rpm for 5 min. at 4° C. to obtain the plasma, which were aspirated into separate labeled tubes and stored at −80° C. Extraction solvent was added to plasma (150 μL 0.1% acetic acid in water: 0.1% acetic acid Methanol, 20:80) was vortexed and shaken on shaker for 10 minutes, centrifuged at 10,000 rpm for 10 minutes at 4° C. Supernatant was used for LC-MS analysis. Parent drug generated that is PBA was monitored by LC-MS (API3200).
Details of the LC column and mobile phase used for the analysis is provided below: • Column: Gemini NX C18, 50 mm*4.6 mm*3.5μ • Mobile Phase: A: 0.1% Acetic in Water • B: 0.1% Acetic acid in Methanol • Flow rate: 0.600 mL/min, gradient program
Acetonitrile and plasma calibration curves were generated and percentage of drug recovery from plasma determined. Quantitative analysis was done by liquid chromatography tandem mass spectrometer (API3200 LC-MS/MS). Cmax, Tmax, AUC and t½ were calculated using Graph Pad PRISM version 5.04.

[1] = SD, rat, in vivo, po, 22.5 mg/kg
[2] = PBA monitored in plasma by LC-MS, overnight fasted SD rats, PO 22.5 mg/kg in 50% Propylene glycol

SMILES | AUC [1] | CHANGE of AUC (Increase) [1] | CHANGE of CL (Decrease) [1] | CHANGE of Cmax (Increase) [1] | CHANGE of MRT (Increase) [1] | CHANGE of Vd (Decrease) [1] | CL [1] [mL/h] | Cmax [1] [µM] | MRT [1] [min] | Tmax [1] [min] | Vd [1] | AUC [2] | CL [2] [mL/h] | MRT [2] [min] | Tmax [2] [min] | Vd [2] | Cmax (PBA monitored in plasma by LC-MS, overnight fasted SD rats, PO 22.5 mg/kg in 50% Propylene glycol, read-out: Cmax) [µM]
O=C(CCCc1ccccc1)OC[C@H](OC(=O)CCCc1ccccc1)[C@@H](COC(=O)CCCc1ccccc1)OC(=O)CCCc1ccccc1 [ERYTHRITOL ANALOG OF PBA, (2R,3S)-butane-1,2,3,4-tetrayl tetrakis(4-phenylbutanoate)] | 104,814 nM · h | Increase 3-fold | Decrease 2.7-fold | Increase 4-fold | Increase 1.5-fold | Decrease 2.75-fold | 225 | 51.3 | 36 | 12 | 2,600 ml |  |  |  |  |  | 
O=C(CCCc1ccccc1)OC[C@H](OC(=O)CCCc1ccccc1)[C@H](COC(=O)CCCc1ccccc1)OC(=O)CCCc1ccccc1 [THREITOL ANALOG OF PBA, (2S,3S)-butane-1,2,3,4-tetrayl-tetrakis(4-phenylbutanoate), reference compound] |  |  |  |  |  |  |  |  |  |  |  | 37,594 nM · h | 600 | 24 | 18 | 7,161 ml | 12.5
